According to patent US20240325369A1 (priority 2021, published 2024):

Method: Efficacy objectives were evaluated for subjects meeting the biomarker selection criteria described in the protocol. All subjects were monitored for safety during the study period, and up to 30 days after the last dose of study drug. Treatment continued until disease progression, unacceptable toxicity, death, or termination of the study by the sponsor.
Serum PSA, CTCs, survival status, SSEs were also collected. PROs included the BPI-SF, FACT-P, and EQ-5D-5L questionnaires. Safety assessments included recording of AEs, physical examinations, vital signs, ECGs, and ECOG performance status. Clinical laboratory testing included hematology, blood chemistry, and liver function parameters. Blood samples were also taken for pharmacokinetic assessments and biomarker analysis. Archival or recently collected tumor tissue samples were obtained from consenting subjects for biomarker identification.
All AEs reported on or after the date of first dose until 30 days (inclusive) after the last dose of study drug were considered treatment-emergent and were summarized. […] In addition. AE incidence rates were also summarized by severity and relationship to study drug. Treatment-related AEs were those judged by the investigator to beat least possibly related to the study drug. […] Deaths that occurred within 30 days after the last dose of study drug were defined as on-study deaths. No inferential statistical analyses were performed in analyzing the safety data.

[1] = safety population (289 subjects)
[2] = safety population (289 subjects), 300 mg once daily
[3] = safety population (289 subjects), data cutoff 26 Jan. 2021
[4] = safety population, 300 mg once daily

NC(=O)c1cccc2cn(-c3ccc([C@@H]4CCCNC4)cc3)nc12 [Niraparib, 2-[4-[(3S)-piperidin-3-yl]phenyl]-2H-indazole-7-carboxamide]
Treatment discontinuation because of adverse events (reason for discontinuation) (289 enrolled subjects, clinical data cutoff 26 Jan. 2021): 14%
Safety profile (heavily pre-treated prostate cancer population): manageable
Deaths due to treatment-emergent AEs, % of subjects [1]: 5.5%
Deaths due to treatment-emergent AEs, number of subjects [1]: 16
Deaths within 30 days of the last dose due to progressive disease, % of subjects [1]: 6%
Deaths within 30 days of the last dose due to progressive disease, number of subjects [1]: 17
AEs leading to treatment discontinuation, % of subjects [2]: 22.8%
Adverse event of clinical interest (all grades): anemia [2]: 54.0%
Adverse event of clinical interest (all grades): febrile neutropenia [2]: 1.0%
Adverse event of clinical interest (all grades): neutropenia [2]: 19.4%
Adverse event of clinical interest (all grades): thrombocytopenia [2]: 34.3%
Grade 3 or 4 AE: anemia [2]: 32.9%
Grade 3 or 4 AE: fatigue [2]: 6.6%
Grade 3 or 4 AE: nausea [2]: 5.2%
Grade 3 or 4 AE: neutropenia [2]: 9.7%
Grade 3 or 4 AE: thrombocytopenia [2]: 16.3%
Grade 3 or 4 AEs, % of subjects [2]: 75.1%
Grade 4 AE: thrombocytopenia, % of subjects [2]: 8.0%
Grade 4 AE: thrombocytopenia, number of subjects [2]: 23
Subjects reporting SAEs [2]: 46.4%
Subjects who experienced at least 1 AE [2]: 99.7%
Subjects who reported a related AE [2]: 90%
Deaths within 30 days of the last dose of study drug, % of subjects [3]: 9%
Deaths within 30 days of the last dose of study drug, number of subjects [3]: 26
Grade 3 or 4 clinical chemistry value: hyperkalemia [4]: 2.5%
Grade 3 or 4 clinical chemistry value: hyponatremia [4]: 3.2%
Grade 3 or 4 clinical chemistry value: increased GGT [4]: 5.0%
Grade 3 or 4 clinical chemistry value: increased alkaline phosphatase [4]: 2.5%
Grade 3 or 4 hematology value: anemia [4]: 17.0%
Grade 3 or 4 hematology value: decreased lymphocyte count [4]: 18.4%
